Reference: ChEMBL document CHEMBL1141623 (Bioorg Med Chem Lett, 2008)

Tests used:
Mu-type opioid receptor = Mu-type opioid receptor (Homo sapiens, UniProt P35372); experiment: Binding affinity to mu opioid receptor
[1] = biological target: Sodium-dependent noradrenaline transporter (Homo sapiens, UniProt P23975); experiment: Inhibition of NET mediated norepinephrine uptake
[2] = Stability in rat liver microsome after 60 mins; format: ADME; conditions: liver microsomes, read-out: Stability
[3] = Stability in rat liver S9 fraction after 60 mins; format: ADME, subcellular; conditions: read-out: Stability
[4] = Stability in human liver microsome after 60 mins; format: ADME; conditions: liver microsomes, read-out: Stability
[5] = Stability in human liver S9 fraction after 60 mins; format: ADME, subcellular; conditions: read-out: Stability
Rattus norvegicus [6] = experiment: Analgesic activity in iv dosed Sprague-Dawley rat by tail-flick model of pain; format: functional
[7] = biological target: Sodium-dependent serotonin transporter (Homo sapiens, UniProt P31645); experiment: Inhibition of SERT mediated 5-hydroxytryptamine uptake
Sequence of Sodium-dependent serotonin transporter (P31645 whole entry): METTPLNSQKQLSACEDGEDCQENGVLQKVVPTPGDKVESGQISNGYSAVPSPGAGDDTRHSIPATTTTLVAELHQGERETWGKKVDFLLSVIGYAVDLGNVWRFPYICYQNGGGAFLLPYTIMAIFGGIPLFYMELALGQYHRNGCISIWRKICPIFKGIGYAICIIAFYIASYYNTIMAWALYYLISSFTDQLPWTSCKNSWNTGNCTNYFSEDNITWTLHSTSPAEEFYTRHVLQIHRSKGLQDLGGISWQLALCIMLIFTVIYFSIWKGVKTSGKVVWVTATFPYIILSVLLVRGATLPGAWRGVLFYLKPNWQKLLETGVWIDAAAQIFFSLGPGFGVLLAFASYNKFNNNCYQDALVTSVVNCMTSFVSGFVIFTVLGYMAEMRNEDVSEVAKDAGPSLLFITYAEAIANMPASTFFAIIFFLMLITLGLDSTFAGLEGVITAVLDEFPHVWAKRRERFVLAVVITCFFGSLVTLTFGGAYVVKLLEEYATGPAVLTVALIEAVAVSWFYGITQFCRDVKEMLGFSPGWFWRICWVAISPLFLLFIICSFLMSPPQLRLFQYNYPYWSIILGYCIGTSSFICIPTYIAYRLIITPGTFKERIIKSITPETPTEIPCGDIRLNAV

Rattus norvegicus [8] = experiment: Analgesic activity in iv dosed Sprague-Dawley rat assessed as duration of effect by tail-flick model of pain; format: functional
[9] = Bioavailability in […] dosed Sprague-Dawley rat; format: ADME, organism-based; conditions: in vivo
Rattus norvegicus [10] = experiment: Toxicity in iv dosed Sprague-Dawley rat; format: organism-based; conditions: in vivo

Sequence of Sodium-dependent noradrenaline transporter (P23975 whole entry): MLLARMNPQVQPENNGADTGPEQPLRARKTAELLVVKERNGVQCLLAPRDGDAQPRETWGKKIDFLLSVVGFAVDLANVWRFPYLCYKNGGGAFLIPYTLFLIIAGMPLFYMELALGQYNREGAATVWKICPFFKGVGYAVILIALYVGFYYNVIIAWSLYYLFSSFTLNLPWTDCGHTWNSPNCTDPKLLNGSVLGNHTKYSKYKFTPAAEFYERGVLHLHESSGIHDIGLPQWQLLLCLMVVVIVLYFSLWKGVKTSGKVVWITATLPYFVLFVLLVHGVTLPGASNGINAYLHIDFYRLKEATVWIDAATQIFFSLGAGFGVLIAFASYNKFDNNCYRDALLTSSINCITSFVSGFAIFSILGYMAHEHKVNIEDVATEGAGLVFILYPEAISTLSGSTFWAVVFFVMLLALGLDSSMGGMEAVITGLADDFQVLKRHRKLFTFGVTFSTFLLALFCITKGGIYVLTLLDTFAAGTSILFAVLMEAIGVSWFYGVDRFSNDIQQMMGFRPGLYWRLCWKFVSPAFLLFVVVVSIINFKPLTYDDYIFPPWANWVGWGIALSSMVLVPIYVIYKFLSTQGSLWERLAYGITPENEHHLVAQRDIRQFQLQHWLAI
Sequence of Mu-type opioid receptor (P35372 whole entry): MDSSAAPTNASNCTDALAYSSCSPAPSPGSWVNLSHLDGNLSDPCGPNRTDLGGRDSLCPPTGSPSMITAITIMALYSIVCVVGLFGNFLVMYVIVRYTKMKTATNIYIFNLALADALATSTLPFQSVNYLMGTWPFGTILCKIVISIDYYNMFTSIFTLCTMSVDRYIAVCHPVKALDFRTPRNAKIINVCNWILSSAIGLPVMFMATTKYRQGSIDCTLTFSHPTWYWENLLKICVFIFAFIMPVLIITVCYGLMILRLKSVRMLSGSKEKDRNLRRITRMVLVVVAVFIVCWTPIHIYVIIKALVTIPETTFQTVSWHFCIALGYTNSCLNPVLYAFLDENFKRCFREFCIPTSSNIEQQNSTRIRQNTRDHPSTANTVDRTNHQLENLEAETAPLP

Compound | IC50 (Mu-type opioid receptor) [µM] | IC50 [1] [µM] | remaining at 1 h [2] [%] | remaining at 1 h [3] [%] | remaining at 1 h [4] [%] | remaining at 1 h [5] [%] | ED50 (Rattus norvegicus [6]) [mg/kg] | IC50 [7] [µM] | Time (Rattus norvegicus [8]) [min] | bioavailability [9] [%] | Activity (Rattus norvegicus [10])
CNCC1CCCCC1(OC)c1cccc(OC)c1 (racemic) | > 10 | 3.87 | 31 | 26 | 77 | 76 | 2.9 |  |  |  | 
COc1cccc([C@@]2(OCC3CC3)CCCC[C@@H]2CN(C)C)c1 | 7.67 | 3.78 | 3 | 6 | 29 | 35 |  | 0.025 |  |  | 
CNC[C@@H]1CCCC[C@@]1(OC)c1cccc(O)c1 | 0.084 | 9 |  |  |  |  |  | 1.05 |  |  | 
CCCO[C@]1(c2cccc(OC)c2)CCCC[C@@H]1CN(C)C | 7.9 | 3.87 |  |  |  |  |  | 0.025 |  |  | 
CCCO[C@]1(c2cccc(O)c2)CCCC[C@@H]1CN(C)C | 0.19 | 6.25 |  |  |  |  |  | 2.8 |  |  | 
CN(C)C[C@H]1CCCC[C@]1(O)c1cccc(O)c1 (racemic) [O-DESMETHYL TRAMADOL] |  | > 10 |  |  |  |  |  |  | 2 |  | 
CO[C@]1(c2cccc(O)c2)CCCC[C@@H]1CN(C)C | 0.056 | 0.525 | 88 | 74 | 104 | 98 |  | 10 |  |  | 
CO[C@]1(c2cccc(C#N)c2)CCCC[C@@H]1CN(C)C | > 10 | 4.49 | 69 | 83 | 89 | 94 |  | 6.24 |  |  | 
COc1cccc([C@@]2(OCCCO)CCCC[C@@H]2CN(C)C)c1 | 8 | 3.86 |  |  |  |  |  | 1.49 |  |  | 
CNC[C@H]1CCCC[C@]1(OC)c1cccc(O)c1 (stereo in doubt; 23) | 0.122 | 2.25 | 86 | 82 | 103 | 108 |  | 6.92 |  |  | 
CCCCO[C@]1(c2cccc(OC)c2)CCCC[C@@H]1CN(C)C | 6.49 | 6.69 | 3 | 4 | 9 | 10 |  | 0.11 |  |  | 
COc1cccc([C@@]2(OC)CCCC[C@@H]2CN(C)C)c1 (racemic) | 7.87 | 0.161 | 17 | 12 | 82 | 85 | 0.7 |  | 20 | 11 | 
CCO[C@]1(c2cccc(O)c2)CCCC[C@@H]1CN(C)C | 0.13 | 3.78 |  |  |  |  |  | 1.42 |  |  | 
CO[C@@]1(c2ccccc2)CCCC[C@H]1CN(C)C | > 10 | 1.56 |  |  |  |  | 3.3 | 3.88 | 13 |  | 
CN(C)C[C@H]1CCCC[C@]1(OCCO)c1cccc(O)c1 | 0.19 | 5.95 |  |  |  |  |  | 1.5 |  |  | 
CO[C@]1(c2ccccc2)CCCC[C@@H]1CN(C)C (stereo in doubt; 28) | 2.59 | 1.52 |  |  |  |  |  | 2.96 |  |  | Toxic
CNC[C@H]1CCCC[C@]1(OC)c1cccc(OC)c1 | > 10 | > 10 |  |  |  |  |  |  |  |  | Toxic
COc1cccc([C@@]2(OCCO)CCCC[C@@H]2CN(C)C)c1 | > 10 | > 10 |  |  |  |  |  | > 10 |  |  | 
CCCCO[C@]1(c2cccc(O)c2)CCCC[C@@H]1CN(C)C | 0.097 | > 10 |  |  |  |  |  | 2.74 |  |  | 
CN(C)C[C@H]1CCCC[C@]1(OCC1CC1)c1cccc(O)c1 | 0.13 | > 10 |  |  |  |  |  | 3.67 |  |  | 
COc1cccc(C2(O)CCCCC2CN(C)C)c1 (racemic) [TRAMADOL] |  | 3.86 | 58 | 56 | 96 | 95 | 11.3 |  | 69 | 36 | 
CNC[C@@H]1CCCC[C@@]1(OC)c1cccc(OC)c1 | > 10 | 0.898 |  |  |  |  | 3.1 |  | 27 |  | 
CO[C@]1(c2ccccc2)CCCC[C@@H]1CN(C)C (stereo in doubt; 14) | 4.75 | 3.79 | 56 | 61 | 96 | 101 |  | 2.53 |  |  | 
CCO[C@]1(c2cccc(OC)c2)CCCC[C@@H]1CN(C)C | > 10 | 1.01 |  |  |  |  |  | 0.181 |  |  | 
CNC[C@H]1CCCC[C@]1(OC)c1cccc(O)c1 (stereo in doubt; 26) | 0.048 | > 10 |  |  |  |  |  | 5.26 |  |  | 
